The record followed here is PMC9572541, “Design, Synthesis and Biological Evaluation of Novel and Potent Protein Arginine Methyltransferases 5 Inhibitors for Cancer Therapy” (Molecules, 2022).

The target in the test is T1, PRMT5 (Homo sapiens, UniProt O14744).
T1 construct: The final concentrations of PRMT5 enzyme: 2.5 nm/L
T1 sequence (O14744 whole entry): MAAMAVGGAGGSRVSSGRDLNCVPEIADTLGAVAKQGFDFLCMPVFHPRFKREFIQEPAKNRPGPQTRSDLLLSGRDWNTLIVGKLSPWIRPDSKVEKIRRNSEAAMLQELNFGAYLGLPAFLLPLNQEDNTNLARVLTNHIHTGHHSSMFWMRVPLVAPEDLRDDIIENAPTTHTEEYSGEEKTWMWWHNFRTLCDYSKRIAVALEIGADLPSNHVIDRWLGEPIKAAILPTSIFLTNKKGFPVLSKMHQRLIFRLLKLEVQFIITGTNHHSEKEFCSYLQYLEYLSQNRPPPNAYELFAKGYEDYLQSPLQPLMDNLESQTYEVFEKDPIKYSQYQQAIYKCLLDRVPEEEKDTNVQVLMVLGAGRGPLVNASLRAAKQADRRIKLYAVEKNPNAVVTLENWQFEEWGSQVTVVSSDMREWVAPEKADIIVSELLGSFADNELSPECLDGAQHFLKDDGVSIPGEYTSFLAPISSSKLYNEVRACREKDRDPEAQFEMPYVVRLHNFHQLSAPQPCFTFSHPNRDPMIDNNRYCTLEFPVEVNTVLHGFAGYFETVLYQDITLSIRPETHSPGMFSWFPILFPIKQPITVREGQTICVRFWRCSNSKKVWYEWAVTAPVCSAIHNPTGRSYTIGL
T1 sequence (Q9BQA1 whole entry partner): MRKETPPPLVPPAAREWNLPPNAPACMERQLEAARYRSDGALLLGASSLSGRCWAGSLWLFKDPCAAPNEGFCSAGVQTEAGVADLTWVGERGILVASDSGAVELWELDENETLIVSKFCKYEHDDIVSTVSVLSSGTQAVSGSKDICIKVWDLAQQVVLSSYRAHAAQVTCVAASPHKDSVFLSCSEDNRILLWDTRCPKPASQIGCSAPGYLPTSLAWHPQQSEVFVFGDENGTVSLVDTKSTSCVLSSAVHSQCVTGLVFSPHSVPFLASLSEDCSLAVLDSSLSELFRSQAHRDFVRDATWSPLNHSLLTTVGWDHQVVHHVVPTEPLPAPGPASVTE
The test can be described thus: PRMT5 enzymatic activity inhibition assay (radioactive methylation, 3H-SAM to H4R3 peptide). The following applies: 100 nM compound; read-out: Inhibition Rate% @100 nM. In kind it is biochemical. As to the method: The PRMT5 enzymatic activity assay was conducted by Chempartner Life science. The final concentrations of PRMT5 enzyme: 2.5 nm/L; ^3H-SAM: 0.3 μM/L; histone peptide (H4R3S1ac): 0.3 μM/L. The protocol of radioactive methylation assay was as follows: (1) Prepare 1× assay buffer (modified Tris Buffer). (2) Transfer compounds to assay plate using Echo in 100% DMSO. DMSO’s final fraction is 1%. (3) Prepare enzyme and ^3H-SAM Mix solution in 1× assay buffer. (4) Prepare substrate (peptide sequence Ac-[…]-K(Biotin)) solution in 1× assay buffer. (5) Transfer 15 μL of enzyme and ^3H-SAM solution to assay plate. (6) Incubate at room temperature for 60 min. (7) Add 10 μL of substrate solution to each well to start the reaction, and for low control transfer 10 μL of 1× assay buffer. (8) Incubate at room temperature for 120 min. (9) Add cold SAM in 1× assay buffer to make the stop mix. (10) Stop reaction with addition of 5 µL per well of stop solution. (11) Transfer 25 µL of volume per well to Flash plate from assay plate. (12) Incubate for 1 h minimum at room temperature.
(13) Read plate on Micro beta. (14) Data process—get the data in Excel to obtain inhibition values using Equation (1).Inhibitory rate% = (Max-Signal)/ (Max-Min) × 100(1)
Fit the data in XL-Fit to obtain IC50 values using Equation (2): Y = Bottom + (Top-Bottom)/(1 + (IC50/X) […]) Y is% inhibition and X is compound concentration(2)
Take `Cc1ccc2[nH]c3ccc(C(=O)NC[C@H](O)CN4CCc5ccccc5C4)cc3c2c1` [Compound 2, (S)-N-(3-(3,4-dihydroisoquinolin-2(1H)-yl)-2-hydroxypropyl)-6-methyl-9H-carbazole-3-carboxamide]: the inhibition (commonly the percentage by which the read-out fell short of the control) at 0.1 µM turned out to be 59 ± 0.4%. To `O=C(NC[C@H](O)CN1CCc2ccccc2C1)c1ccc2[nH]c3ccc(F)cc3c2c1` [Compound 3, (S)-N-(3-(3,4-dihydroisoquinolin-2(1H)-yl)-2-hydroxypropyl)-6-fluoro-9H-carbazole-3-carboxamide] belongs 65 ± 0.2%; to `COc1ccc2[nH]c3ccc(C(=O)NC[C@H](O)CN4CCc5ccccc5C4)cc3c2c1` [Compound 4, (S)-N-(3-(3,4-dihydroisoquinolin-2(1H)-yl)-2-hydroxypropyl)-6-methoxy-9H-carbazole-3-carboxamide], 64 ± 1.5%. To `O=C(NC[C@H](O)CN1CCc2ccccc2C1)c1ccc2[nH]c3ccc(Cl)cc3c2c1` [Compound 5, (S)-6-chloro-N-(3-(3,4-dihydroisoquinolin-2(1H)-yl)-2-hydroxypropyl)-9H-carbazole-3-carboxamide] belongs 69 ± 7%; to `Cn1c2ccccc2c2cc(C(=O)NC[C@H](O)CN3CCc4ccccc4C3)ccc21` [Compound 6, (S)-N-(3-(3,4-dihydroisoquinolin-2(1H)-yl)-2-hydroxypropyl)-9-methyl-9H-carbazole-3-carboxamide], 63 ± 3.2%. With `O=C(NC[C@H](O)CN1CCc2ccccc2C1)c1ccc2[nH]c3c(c2c1)CCC3` [Compound 8, (S)-N-(3-(3,4-dihydroisoquinolin-2(1H)-yl)-2-hydroxypropyl)-1,2,3,4-tetrahydrocyclopenta[b]indole-7-carboxamide], the inhibition at 0.1 µM stood at 74 ± 2%.

As to `O=C(NC[C@H](O)CN1CCc2ccccc2C1)c1ccc2[nH]c3c(c2c1)CCCCC3` [Compound 9, (S)-N-(3-(3,4-dihydroisoquinolin-2(1H)-yl)-2-hydroxypropyl)-5,6,7,8,9,10-hexahydrocyclohepta[b]indole-2-carboxamide], the inhibition at 0.1 µM turned out to be 73 ± 4.1%. To `CC1CCc2[nH]c3ccc(C(=O)NC[C@H](O)CN4CCc5ccccc5C4)cc3c2C1` (stereo partly drawn) [Compound 11, N-((S)-3-(3,4-dihydroisoquinolin-2(1H)-yl)-2-hydroxypropyl)-3-methyl-2,3,4,9-tetrahydro-1H-carbazole-6-carboxamide] belongs 67 ± 3.5%.

Regarding `CCC1CCc2[nH]c3ccc(C(=O)NC[C@H](O)CN4CCc5ccccc5C4)cc3c2C1` (stereo partly drawn) [Compound 12, N-((S)-3-(3,4-dihydroisoquinolin-2(1H)-yl)-2-hydroxypropyl)-3-ethyl-2,3,4,9-tetrahydro-1H-carbazole-6-carboxamide], the inhibition at 0.1 µM was determined as 58 ± 3.7%. Regarding `CC(C)n1c2c(c3cc(C(=O)NC[C@H](O)CN4CCc5ccccc5C4)ccc31)CCCC2` [Compound 16, (S)-N-(3-(3,4-dihydroisoquinolin-2(1H)-yl)-2-hydroxypropyl)-9-isopropyl-2,3,4,9-tetrahydro-1H-carbazole-6-carboxamide], the inhibition at 0.1 µM amounted to 70 ± 0.2%.

Take `CC(C)Cn1c2c(c3cc(C(=O)NC[C@H](O)CN4CCc5ccccc5C4)ccc31)CCCC2` [Compound 17, (S)-N-(3-(3,4-dihydroisoquinolin-2(1H)-yl)-2-hydroxypropyl)-9-isobutyl-2,3,4,9-tetrahydro-1H-carbazole-6-carboxamide]: the inhibition at 0.1 µM was 75 ± 1.6%. In the case of `O=C(NC[C@H](O)CN1CCc2ccccc2C1)c1ccc2c(c1)c1c(n2CC2CC2)CCCC1` [Compound 18, (S)-9-(cyclopropylmethyl)-N-(3-(3,4-dihydroisoquinolin-2(1H)-yl)-2-hydroxypropyl)-2,3,4,9-tetrahydro-1H-carbazole-6-carboxamide], the inhibition at 0.1 µM was found to be 60 ± 4.6%. To `CN1CCc2[nH]c3ccc(C(=O)NC[C@H](O)CN4CCc5ccccc5C4)cc3c2C1` [Compound 21, (S)-N-(3-(3,4-dihydroisoquinolin-2(1H)-yl)-2-hydroxypropyl)-2-methyl-2,3,4,5-tetrahydro-1H-pyrido[4,3-b]indole-8-carboxamide] belongs 48 ± 1.2%; to `CCN1CCc2[nH]c3ccc(C(=O)NC[C@H](O)CN4CCc5ccccc5C4)cc3c2C1` [Compound 22, (S)-N-(3-(3,4-dihydroisoquinolin-2(1H)-yl)-2-hydroxypropyl)-2-ethyl-2,3,4,5-tetrahydro-1H-pyrido[4,3-b]indole-8-carboxamide], 64 ± 10.7%. To `O=C(NC[C@H](O)CN1CCc2ccccc2C1)c1ccc2[nH]c3c(c2c1)CN(C1CC1)CC3` [Compound 23, (S)-2-cyclopropyl-N-(3-(3,4-dihydroisoquinolin-2(1H)-yl)-2-hydroxypropyl)-2,3,4,5-tetrahydro-1H-pyrido[4,3-b]indole-8-carboxamide] belongs 52 ± 4.8%; to `CCCN1CCc2[nH]c3ccc(C(=O)NC[C@H](O)CN4CCc5ccccc5C4)cc3c2C1` [Compound 24, (S)-N-(3-(3,4-dihydroisoquinolin-2(1H)-yl)-2-hydroxypropyl)-2-propyl-2,3,4,5-tetrahydro-1H-pyrido[4,3-b]indole-8-carboxamide], 63 ± 4.4%; to `CC(C)N1CCc2[nH]c3ccc(C(=O)NC[C@H](O)CN4CCc5ccccc5C4)cc3c2C1` [Compound 25, (S)-N-(3-(3,4-dihydroisoquinolin-2(1H)-yl)-2-hydroxypropyl)-2-isopropyl-2,3,4,5-tetrahydro-1H-pyrido[4,3-b]indole-8-carboxamide], 51 ± 4.2%. To `CC(C)CN1CCc2[nH]c3ccc(C(=O)NC[C@H](O)CN4CCc5ccccc5C4)cc3c2C1` [Compound 26, (S)-N-(3-(3,4-dihydroisoquinolin-2(1H)-yl)-2-hydroxypropyl)-2-isobutyl-2,3,4,5-tetrahydro-1H-pyrido[4,3-b]indole-8-carboxamide] belongs 59 ± 1.4%.
